≈ marks a conversion by molar mass, not a printed value.
Assays:
[1] = tested on: Resistant Staphylococcus aureus 1775; assay: In vitro antibacterial activity, agar dilution MIC; type: cell-based; conditions: BHI agar dilution, 35-37° C., 20 to 24 hours
Method: (§1) Representative compounds of the present invention were assayed in vitro for antibacterial activity as follows: Petri dishes containing successive aqueous dilutions of the test compound mixed with 10 mL of sterilized Brain Heart Infusion (BHI) agar (Difco 0418-01-5) were prepared. Each plate was inoculated with 1:100 dilutions of a different microorganism, using a Steers replicator block. The inoculated plates were incubated at 35-37° C. for 20 to 24 hours. In addition, a control plate, using BHI agar containing no test compound, was prepared and incubated at the beginning and end of each test.
(§2) An additional plate containing a compound having known susceptibility patterns for the organisms being tested and belonging to the same antibiotic class as the test compound was also prepared and incubated as a further control, as well as to provide test-to-test comparability. Erythromycin A was used for this purpose.
(§3) After incubation, each plate was visually inspected. The minimum inhibitory concentration (MIC) was defined as the lowest concentration of drug yielding no growth, a slight haze, or sparsely isolated colonies on the inoculum spot as compared to the growth control.

S. aureus A-5278 = assay: In vitro antibacterial activity, agar dilution MIC; type: cell-based, Staphylococcus aureus; conditions: BHI agar dilution, 35-37° C., 20 to 24 hours
Method: as §1, §2, §3

| MIC ([1]; Staphylococcus aureus, read-out: MIC S. aureus 1775) [µg/mL] | MIC (S. aureus A-5278; Staphylococcus aureus, A5278) [µg/mL] | Compound | MIC S. aureus 1775 [1] [µg/mL] | MIC S. aureus A-5278 (S. aureus A-5278) [µg/mL] |
| --- | --- | --- | --- | --- |
| – | – | CCON=C1C(C)CC(C)(OCC=Cc2cnc3ccccc3c2)C(OC2OC(C)CC(N(C)C)C2O)C(C)C(=O)C(C)C(=O)OC(CC)C(C)(O)C(O)C1C (stereo not shown) [Ex. 1, 6-O-[3-(3-quinolyl)-2-propen-1-yl]-3-descladinose-3-oxo-9-[(O-ethyl)oxime] Erythromycin A] | 12.5 (≈ 15.9 µM) | 25 (≈ 31.9 µM) |
| – | – | CC[C@H]1OC(=O)[C@H](C)[C@@H](O[C@H]2C[C@@](C)(OC)[C@@H](O)[C@H](C)O2)[C@H](C)[C@@H](O[C@@H]2O[C@H](C)C[C@H](N(C)C)[C@H]2O)[C@](C)(O)C[C@@H](C)C(=O)[C@H](C)[C@@H](O)[C@]1(C)O [Erythromycin, Erythromycin A, reference compound] | >100 | >100 |
| > 100 | > 100 | COc1cccc(OC)c1C(=O)N[C@@H]1C(=O)N2[C@@H]1SC(C)(C)[C@@H]2C(=O)O [Methicillin, reference compound] | – | – |
| – | – | CCC1OC(=O)C(C)C(OC2CC(C)(OC)C(O)C(C)O2)C(C)C(OC2OC(C)CC(N(C)C)C2O)C(C)(OCc2cccc(I)c2)CC(C)C(=NO)C(C)C(O)C1(C)O (stereo not shown) [Ex. 12, 6-O-[(3-Iodo)benzyl]-9-oxime Erythromycin A] | 25 (≈ 25.9 µM) | 25 (≈ 25.9 µM) |
| – | – | CCC1OC(=O)C(C)C(OC2CC(C)(OC)C(O)C(C)O2)C(C)C(OC2OC(C)CC(N(C)C)C2O)C(C)(OCc2ccc(-c3ccccc3)cc2)CC(C)C(=NO)C(C)C(O)C1(C)O (stereo not shown) [Ex. 13, 6-O-[(4-Phenyl)benzyl]-9-oxime Erythromycin A] | 25 (≈ 27.3 µM) | 50 (≈ 54.6 µM) |
